Measurements: ChEMBL document CHEMBL3886358, “Quinolyl-containing hydroxamic acid compound and preparation method thereof, and pharmaceutical composition containing this compound and use thereof” (2015)

Tests used:
[1] = molecular target: Platelet-derived growth factor receptor beta (Homo sapiens, UniProt P09619); experiment: (§1) Sci. USA 1988, 85(23), 9312). Specific steps were as follows: The compound of the present invention was dissolved in dimethyl sulfoxide (DMSO) to make a stock solution of 2 mM, then the stock solution was diluted with DMSO following a 7 half-log series to concentrations ranging from 2 uM to 600 pM.; assay type: cell-based
Sequence of Platelet-derived growth factor receptor beta (P09619 whole entry): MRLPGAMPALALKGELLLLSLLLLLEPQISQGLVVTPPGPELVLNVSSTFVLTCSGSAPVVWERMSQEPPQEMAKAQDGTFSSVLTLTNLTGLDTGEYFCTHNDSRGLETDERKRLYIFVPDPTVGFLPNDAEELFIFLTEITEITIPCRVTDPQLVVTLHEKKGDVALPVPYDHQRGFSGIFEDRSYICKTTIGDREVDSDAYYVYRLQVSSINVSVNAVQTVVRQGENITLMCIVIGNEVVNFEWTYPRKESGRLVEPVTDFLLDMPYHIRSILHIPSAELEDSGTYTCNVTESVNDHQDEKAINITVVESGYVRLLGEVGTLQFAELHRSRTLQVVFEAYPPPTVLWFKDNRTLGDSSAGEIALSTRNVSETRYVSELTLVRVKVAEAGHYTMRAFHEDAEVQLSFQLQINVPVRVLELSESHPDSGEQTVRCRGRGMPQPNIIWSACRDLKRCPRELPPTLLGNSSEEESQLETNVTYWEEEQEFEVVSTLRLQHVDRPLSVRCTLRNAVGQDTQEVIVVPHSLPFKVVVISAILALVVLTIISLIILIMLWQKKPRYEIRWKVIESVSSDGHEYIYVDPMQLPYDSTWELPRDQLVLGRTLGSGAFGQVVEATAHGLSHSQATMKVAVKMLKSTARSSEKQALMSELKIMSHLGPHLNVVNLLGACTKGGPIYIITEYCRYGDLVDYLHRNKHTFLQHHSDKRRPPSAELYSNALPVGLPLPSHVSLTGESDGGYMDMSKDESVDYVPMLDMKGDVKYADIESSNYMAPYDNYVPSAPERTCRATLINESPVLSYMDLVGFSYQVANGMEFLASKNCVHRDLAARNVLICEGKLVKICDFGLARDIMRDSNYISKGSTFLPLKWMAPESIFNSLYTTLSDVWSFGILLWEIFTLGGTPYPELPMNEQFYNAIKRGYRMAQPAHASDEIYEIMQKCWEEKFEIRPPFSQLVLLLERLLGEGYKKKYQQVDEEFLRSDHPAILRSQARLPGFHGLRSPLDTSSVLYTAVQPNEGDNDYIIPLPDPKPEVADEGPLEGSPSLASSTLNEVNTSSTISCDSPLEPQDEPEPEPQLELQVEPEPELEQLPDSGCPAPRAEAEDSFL

[2] = molecular target: Vascular endothelial growth factor receptor 2 (Homo sapiens, UniProt P35968); experiment: as §1; assay type: cell-based
[3] = molecular target: Hepatocyte growth factor receptor (Homo sapiens, UniProt P08581); experiment: as §1; assay type: cell-based
[4] = molecular target: ALK tyrosine kinase receptor (Homo sapiens, UniProt Q9UM73); experiment: as §1; assay type: cell-based
[5] = molecular target: Proto-oncogene tyrosine-protein kinase receptor Ret (Homo sapiens, UniProt P07949); experiment: as §1; assay type: cell-based
[6] = molecular target: T1, Receptor-type tyrosine-protein kinase FLT3 (Homo sapiens, UniProt P36888); experiment: as §1; assay type: cell-based
T1 sequence (P36888 whole entry): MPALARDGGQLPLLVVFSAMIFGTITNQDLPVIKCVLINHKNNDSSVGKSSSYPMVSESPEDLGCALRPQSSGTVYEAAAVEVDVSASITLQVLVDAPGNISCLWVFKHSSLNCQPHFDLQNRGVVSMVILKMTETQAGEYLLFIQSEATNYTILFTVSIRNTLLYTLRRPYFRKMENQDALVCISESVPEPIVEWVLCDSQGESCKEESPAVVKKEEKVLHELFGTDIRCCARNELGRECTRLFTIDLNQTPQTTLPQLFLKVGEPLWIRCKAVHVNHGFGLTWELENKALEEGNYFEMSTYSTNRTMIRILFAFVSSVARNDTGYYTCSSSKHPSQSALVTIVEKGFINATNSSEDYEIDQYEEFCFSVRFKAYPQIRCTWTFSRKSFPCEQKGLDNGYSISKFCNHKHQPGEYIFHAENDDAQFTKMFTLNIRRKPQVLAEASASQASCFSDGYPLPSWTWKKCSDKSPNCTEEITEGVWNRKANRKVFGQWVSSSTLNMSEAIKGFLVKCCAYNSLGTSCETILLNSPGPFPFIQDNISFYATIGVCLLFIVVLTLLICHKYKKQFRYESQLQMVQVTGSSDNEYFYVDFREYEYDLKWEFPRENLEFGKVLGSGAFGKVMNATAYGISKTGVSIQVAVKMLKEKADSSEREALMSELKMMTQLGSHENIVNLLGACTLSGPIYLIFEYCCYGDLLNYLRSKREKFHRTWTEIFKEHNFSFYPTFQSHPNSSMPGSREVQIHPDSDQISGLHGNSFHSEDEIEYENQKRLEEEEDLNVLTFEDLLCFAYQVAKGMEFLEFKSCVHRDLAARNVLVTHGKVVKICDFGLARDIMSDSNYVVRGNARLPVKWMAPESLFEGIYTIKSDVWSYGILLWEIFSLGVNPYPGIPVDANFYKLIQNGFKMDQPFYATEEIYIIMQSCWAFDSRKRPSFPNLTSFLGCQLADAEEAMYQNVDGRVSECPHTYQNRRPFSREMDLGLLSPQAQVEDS

[7] = molecular target: Proto-oncogene tyrosine-protein kinase Src (Homo sapiens, UniProt P12931); experiment: as §1; assay type: cell-based
Histone deacetylase 2 = Histone deacetylase 2 (Homo sapiens, UniProt Q92769); experiment: (§2) Inhibition Assay: The inhibitions of activities of HDAC enzymes by the compounds N1'-[3-fluoro-4-[[7-[4-(hydroxyamino)-4-oxobutoxy]-6-methoxy-4-quinolyl]oxy]phenyl]-N1-(4-fluoro phenyl)cyclopropane-1,1-dicarboxamide prepared in Example 9 and N1'-[3-fluoro-4-[[7-[6-(hydroxyamino)-6-oxohexyloxy]-6-methoxy-4-quinolyl]oxy]phenyl]-N1-(4-fluo rophenyl)cyclopropane-1,1-dicarboxamide prepared in Example 13 were measured by Reaction Biology Corporation (Reaction Biology Corp., One Great Valley Parkway, Suite 2, Malvern, PA 19355, USA . http://www.reactionbiology.com/pages/hdac.htm). The HDAC enzymes tested include the following 11 HDAC isoforms: HDAC1, HDAC2, HDAC3, HDAC4, HDAC5, HDAC6, HDAC7, HDAC8, HDAC9, HDAC10 and HDAC11.Specific steps were as follows: The compound of the present invention was dissolved in dimethyl sulfoxide (DMSO) to make a stock solution of 10 mM. The stock solution was diluted in 4-fold series starting from 10 mM to prepare 10 different dosages.
Sequence of Histone deacetylase 2 (Q92769 whole entry, canonical isoform): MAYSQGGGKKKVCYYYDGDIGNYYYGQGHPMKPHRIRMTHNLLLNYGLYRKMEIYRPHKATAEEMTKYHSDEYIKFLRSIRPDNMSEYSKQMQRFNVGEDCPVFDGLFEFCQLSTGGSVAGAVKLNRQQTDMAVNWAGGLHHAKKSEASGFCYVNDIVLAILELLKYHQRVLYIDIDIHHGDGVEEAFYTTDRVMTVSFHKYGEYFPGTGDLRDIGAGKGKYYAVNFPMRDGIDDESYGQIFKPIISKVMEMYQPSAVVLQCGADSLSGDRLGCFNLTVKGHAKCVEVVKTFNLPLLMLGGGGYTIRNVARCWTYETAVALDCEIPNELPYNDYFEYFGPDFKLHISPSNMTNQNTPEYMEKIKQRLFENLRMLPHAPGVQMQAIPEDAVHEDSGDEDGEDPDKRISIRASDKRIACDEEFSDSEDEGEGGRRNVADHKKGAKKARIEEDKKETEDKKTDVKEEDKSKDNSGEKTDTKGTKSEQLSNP

Histone deacetylase 3 = Histone deacetylase 3 (Homo sapiens, UniProt O15379); experiment: as §2
Sequence of Histone deacetylase 3 (O15379 whole entry): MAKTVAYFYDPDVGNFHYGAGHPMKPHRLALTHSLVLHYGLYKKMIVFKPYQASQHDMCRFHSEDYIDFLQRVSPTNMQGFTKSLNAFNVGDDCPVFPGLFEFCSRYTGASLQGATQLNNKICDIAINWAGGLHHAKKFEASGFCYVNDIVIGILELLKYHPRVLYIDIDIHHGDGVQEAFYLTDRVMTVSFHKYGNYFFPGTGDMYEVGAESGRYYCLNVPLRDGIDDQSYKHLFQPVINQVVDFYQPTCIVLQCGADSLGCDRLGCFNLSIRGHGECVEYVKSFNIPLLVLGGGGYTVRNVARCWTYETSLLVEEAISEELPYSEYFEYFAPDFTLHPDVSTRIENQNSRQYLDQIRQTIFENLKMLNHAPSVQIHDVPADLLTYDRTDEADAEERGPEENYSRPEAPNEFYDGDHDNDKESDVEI

Histone deacetylase 4 = Histone deacetylase 4 (Homo sapiens, UniProt P56524); experiment: as §2
Sequence of Histone deacetylase 4 (P56524 whole entry): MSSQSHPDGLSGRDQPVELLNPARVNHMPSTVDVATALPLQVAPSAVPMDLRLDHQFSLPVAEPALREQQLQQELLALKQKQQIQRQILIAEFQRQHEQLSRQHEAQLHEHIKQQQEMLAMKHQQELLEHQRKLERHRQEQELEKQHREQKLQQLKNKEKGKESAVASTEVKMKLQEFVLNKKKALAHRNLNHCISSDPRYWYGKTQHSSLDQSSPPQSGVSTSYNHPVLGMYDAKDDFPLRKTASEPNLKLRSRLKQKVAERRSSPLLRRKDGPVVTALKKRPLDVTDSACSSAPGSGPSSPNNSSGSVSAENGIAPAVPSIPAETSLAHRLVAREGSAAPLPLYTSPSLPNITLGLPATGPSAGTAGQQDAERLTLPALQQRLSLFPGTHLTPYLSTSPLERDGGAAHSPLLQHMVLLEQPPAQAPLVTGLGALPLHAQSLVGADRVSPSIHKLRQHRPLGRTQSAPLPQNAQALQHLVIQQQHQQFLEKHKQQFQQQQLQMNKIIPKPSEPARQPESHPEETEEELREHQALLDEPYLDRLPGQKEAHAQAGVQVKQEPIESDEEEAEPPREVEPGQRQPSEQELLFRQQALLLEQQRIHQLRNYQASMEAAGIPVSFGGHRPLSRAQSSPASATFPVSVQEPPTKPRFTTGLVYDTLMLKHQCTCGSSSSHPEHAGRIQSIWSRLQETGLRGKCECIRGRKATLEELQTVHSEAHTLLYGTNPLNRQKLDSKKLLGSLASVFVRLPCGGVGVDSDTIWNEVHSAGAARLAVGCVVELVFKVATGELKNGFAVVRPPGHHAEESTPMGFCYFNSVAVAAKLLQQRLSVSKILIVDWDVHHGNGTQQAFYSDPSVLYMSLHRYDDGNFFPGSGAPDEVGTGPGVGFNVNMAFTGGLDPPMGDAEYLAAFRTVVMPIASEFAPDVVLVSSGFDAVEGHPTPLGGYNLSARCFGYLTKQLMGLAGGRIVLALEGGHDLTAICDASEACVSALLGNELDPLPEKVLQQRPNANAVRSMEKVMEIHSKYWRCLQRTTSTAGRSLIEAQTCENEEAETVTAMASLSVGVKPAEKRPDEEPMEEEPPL

Histone deacetylase 8 = molecular target: T2, Histone deacetylase 8 (Homo sapiens, UniProt Q9BY41); experiment: as §2
T2 sequence (Q9BY41 whole entry): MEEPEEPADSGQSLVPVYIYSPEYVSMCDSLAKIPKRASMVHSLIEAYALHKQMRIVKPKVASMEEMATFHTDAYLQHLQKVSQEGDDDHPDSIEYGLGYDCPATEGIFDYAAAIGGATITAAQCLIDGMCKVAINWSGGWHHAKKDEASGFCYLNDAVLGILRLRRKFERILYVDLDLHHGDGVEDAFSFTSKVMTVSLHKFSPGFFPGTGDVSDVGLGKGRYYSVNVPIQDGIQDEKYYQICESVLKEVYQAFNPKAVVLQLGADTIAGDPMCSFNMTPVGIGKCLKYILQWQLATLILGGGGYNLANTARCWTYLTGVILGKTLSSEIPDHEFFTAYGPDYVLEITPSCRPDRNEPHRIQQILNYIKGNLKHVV

Histone deacetylase 11 = molecular target: T3, Histone deacetylase 11 (Homo sapiens, UniProt Q96DB2); experiment: as §2
T3 sequence (Q96DB2 whole entry): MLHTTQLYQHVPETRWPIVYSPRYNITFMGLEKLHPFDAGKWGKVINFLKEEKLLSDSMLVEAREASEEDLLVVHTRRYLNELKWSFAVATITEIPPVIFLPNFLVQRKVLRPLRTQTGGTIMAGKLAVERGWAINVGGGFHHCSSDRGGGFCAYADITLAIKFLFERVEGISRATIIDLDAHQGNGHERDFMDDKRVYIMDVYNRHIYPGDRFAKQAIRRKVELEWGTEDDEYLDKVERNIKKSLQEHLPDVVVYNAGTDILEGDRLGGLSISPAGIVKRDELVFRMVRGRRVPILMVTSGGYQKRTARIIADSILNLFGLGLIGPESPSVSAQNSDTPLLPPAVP

Histone deacetylase 1 = Histone deacetylase 1 (Homo sapiens, UniProt Q13547); experiment: as §2
Sequence of Histone deacetylase 1 (Q13547 whole entry): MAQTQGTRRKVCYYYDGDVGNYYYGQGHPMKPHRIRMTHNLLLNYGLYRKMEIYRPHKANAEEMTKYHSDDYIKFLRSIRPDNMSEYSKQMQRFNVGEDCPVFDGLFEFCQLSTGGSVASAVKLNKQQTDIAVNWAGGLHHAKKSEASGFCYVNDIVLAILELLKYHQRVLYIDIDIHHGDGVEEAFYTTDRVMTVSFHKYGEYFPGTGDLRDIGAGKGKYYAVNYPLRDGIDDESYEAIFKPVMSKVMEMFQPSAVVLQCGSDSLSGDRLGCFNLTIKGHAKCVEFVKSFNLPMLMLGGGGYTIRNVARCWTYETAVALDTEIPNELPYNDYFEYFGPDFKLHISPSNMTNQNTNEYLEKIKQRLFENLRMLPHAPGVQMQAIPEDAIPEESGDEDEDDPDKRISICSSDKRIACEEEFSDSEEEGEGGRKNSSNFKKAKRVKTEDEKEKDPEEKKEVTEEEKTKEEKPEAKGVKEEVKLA

Histone deacetylase 9 = Histone deacetylase 9 (Homo sapiens, UniProt Q9UKV0); experiment: as §2
Sequence of Histone deacetylase 9 (Q9UKV0 whole entry): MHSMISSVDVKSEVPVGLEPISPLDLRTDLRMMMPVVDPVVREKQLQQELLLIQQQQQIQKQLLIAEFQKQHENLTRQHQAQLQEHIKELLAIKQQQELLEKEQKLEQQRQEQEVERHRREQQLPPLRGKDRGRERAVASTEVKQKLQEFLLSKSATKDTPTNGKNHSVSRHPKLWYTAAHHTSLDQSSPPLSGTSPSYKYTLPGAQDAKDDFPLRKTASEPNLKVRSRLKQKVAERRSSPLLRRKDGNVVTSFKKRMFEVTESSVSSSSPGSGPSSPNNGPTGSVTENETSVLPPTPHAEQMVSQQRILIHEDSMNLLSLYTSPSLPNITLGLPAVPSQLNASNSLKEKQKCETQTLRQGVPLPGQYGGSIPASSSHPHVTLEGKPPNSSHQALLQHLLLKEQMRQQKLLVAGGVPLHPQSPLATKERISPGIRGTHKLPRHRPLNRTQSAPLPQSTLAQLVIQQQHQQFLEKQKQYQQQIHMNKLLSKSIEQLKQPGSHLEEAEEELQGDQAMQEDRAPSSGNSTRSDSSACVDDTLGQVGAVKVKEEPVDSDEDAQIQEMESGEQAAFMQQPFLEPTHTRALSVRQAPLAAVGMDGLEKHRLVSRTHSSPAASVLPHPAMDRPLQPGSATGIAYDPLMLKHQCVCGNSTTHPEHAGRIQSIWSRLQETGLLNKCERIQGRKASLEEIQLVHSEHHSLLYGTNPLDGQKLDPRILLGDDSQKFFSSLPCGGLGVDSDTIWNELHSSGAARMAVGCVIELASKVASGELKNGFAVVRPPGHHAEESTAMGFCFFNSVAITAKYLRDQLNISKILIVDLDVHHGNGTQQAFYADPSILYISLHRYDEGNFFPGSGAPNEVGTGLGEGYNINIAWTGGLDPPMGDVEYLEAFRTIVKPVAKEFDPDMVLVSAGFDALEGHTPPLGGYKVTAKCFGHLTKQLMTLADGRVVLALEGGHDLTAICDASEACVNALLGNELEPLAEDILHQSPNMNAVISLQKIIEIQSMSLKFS

Structure (SMILES)	IC50 [1] [µM]	IC50 [2] [µM]	IC50 [3] [µM]	IC50 [4] [µM]	IC50 [5] [µM]	IC50 [6] [µM]	IC50 [7] [µM]	IC50 (Histone deacetylase 2) [µM]	IC50 (Histone deacetylase 3) [µM]	IC50 (Histone deacetylase 4) [µM]	IC50 (Histone deacetylase 8) [µM]	IC50 (Histone deacetylase 11) [µM]	IC50 (Histone deacetylase 1) [µM]	IC50 (Histone deacetylase 9) [µM]
COc1cc2c(Oc3ccc(NC(=O)C4(C(=O)Nc5ccc(F)cc5)CC4)cc3F)ccnc2cc1OCCCC(=O)NO	0.172	0.012	0.119	> 0.63	0.154	0.031	> 0.63	0.431	> 10	> 10	8.94	> 10	> 10	> 10
COc1cc2c(Oc3ccc(NC(=O)C4(C(=O)Nc5ccc(F)cc5)CC4)cc3F)ccnc2cc1OCCCCCC(=O)NO	–	–	–	–	–	–	–	2.74	> 10	> 10	1.63	6.13	> 10	> 10
